In ChEMBL document CHEMBL1127241, “Taxol photoaffinity labels 2. Synthesis and biological evaluation of N-(4-azidobenzoyl)-N-debenzoyltaxol, N-(4-azido-2,3,5,6-tetrafluorobenzoyl)-N-debenzoyltaxol, and 7-(4-azido-2,3,5,6-tetrafluorobenzoyl)taxol” (1994) one finds ED50 ratio data, which are given here for four molecules.

Where only a bound is given, the exact number is not on record here.

Assay [1] concerns B16. The experiment in a line: Concentration which produces 50% inhibition of proliferation of B16 melanoma cells after 40 hr incubation expressed as ED50 ratio relative to taxol. The assay is classed as functional, Mus musculus.
The target in assay [2] is Tubulin alpha chain (Sus scrofa) (UniProt P02550). Nature of the assay: Concentration which causes polymerization of 50% of the tubulin present in 15 min at 37 degree Celsius (stimulation of microtubule assembly) expressed as ED50 ratio relative to taxol. The assay is classed as functional.
Sequence of Tubulin alpha chain (Sus scrofa) (P02550 whole entry, looked up): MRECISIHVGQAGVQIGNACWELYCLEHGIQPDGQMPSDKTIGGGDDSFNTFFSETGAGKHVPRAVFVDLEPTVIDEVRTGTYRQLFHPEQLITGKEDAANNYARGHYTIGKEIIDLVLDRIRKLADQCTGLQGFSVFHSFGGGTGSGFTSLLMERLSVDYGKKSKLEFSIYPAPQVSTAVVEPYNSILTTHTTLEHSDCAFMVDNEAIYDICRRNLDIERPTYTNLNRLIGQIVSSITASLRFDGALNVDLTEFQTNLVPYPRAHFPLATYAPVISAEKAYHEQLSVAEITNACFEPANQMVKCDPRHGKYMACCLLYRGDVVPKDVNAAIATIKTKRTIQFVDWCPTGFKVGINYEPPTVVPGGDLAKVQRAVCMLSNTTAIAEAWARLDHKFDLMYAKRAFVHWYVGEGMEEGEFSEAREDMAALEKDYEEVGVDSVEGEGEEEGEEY

For `CC(=O)O[C@H]1C(=O)[C@@]2(C)[C@H]([C@H](OC(=O)c3ccccc3)[C@]3(O)C[C@H](OC(=O)[C@H](O)[C@@H](NC(=O)c4ccc(N=[N+]=[N-])cc4)c4ccccc4)C(C)=C1C3(C)C)[C@]1(OC(C)=O)CO[C@@H]1C[C@@H]2O`, the ED50 ratio in assay [1] was 4.6; in assay [2], 2.
Turning to `CC(=O)O[C@H]1C(=O)[C@]2(C)[C@@H](OC(=O)c3ccc(N=[N+]=[N-])cc3)C[C@H]3OC[C@@]3(OC(C)=O)[C@H]2[C@H](OC(=O)c2ccccc2)[C@]2(O)C[C@H](OC(=O)[C@H](O)[C@@H](NC(=O)c3ccccc3)c3ccccc3)C(C)=C1C2(C)C`, the ED50 ratio in assay [1] stood at 30; in assay [2] it was 21.4.
`CC(=O)O[C@H]1C(=O)[C@]2(C)[C@@H](OC(=O)c3c(F)c(F)c(N=[N+]=[N-])c(F)c3F)C[C@H]3OC[C@@]3(OC(C)=O)[C@H]2[C@H](OC(=O)c2ccccc2)[C@]2(O)C[C@H](OC(=O)[C@H](O)[C@@H](NC(=O)c3ccccc3)c3ccccc3)C(C)=C1C2(C)C`: the ED50 ratio in assay [2] is greater than 22.4.
Turning to `CC(=O)O[C@H]1C(=O)[C@@]2(C)[C@H]([C@H](OC(=O)c3ccccc3)[C@]3(O)C[C@H](OC(=O)[C@H](O)[C@@H](NC(=O)c4c(F)c(F)c(N=[N+]=[N-])c(F)c4F)c4ccccc4)C(C)=C1C3(C)C)[C@]1(OC(C)=O)CO[C@@H]1C[C@@H]2O`, the ED50 ratio is 14.8 in assay [1] and 4.6 in assay [2].
